Assay results taken from ChEMBL document CHEMBL3352627, “Brocazines A-F, Cytotoxic Bisthiodiketopiperazine Derivatives from Penicillium brocae MA-231, an Endophytic Fungus Derived from the Marine Mangrove Plant Avicennia marina” (J Nat Prod, 2014).

How the values were obtained:
Assay type in all cases: functional, cell-based
HepG2 = test: Cytotoxicity against human HepG2 cells assessed as reduction in cell viability
NCI-H460 = test: cells; settings: Homo sapiens
Description: Cytotoxicity against human NCI-H460 cells assessed as reduction in cell viability

HeLa = test: Cytotoxicity against human HeLa cells assessed as reduction in cell viability
U-251 = test: Cytotoxicity against human U251 cells assessed as reduction in cell viability
DU-145 = test: Cytotoxicity against human DU145 cells assessed as reduction in cell viability
SW480 = test: Cytotoxicity against human SW480 cells assessed as reduction in cell viability
[1] = Cytotoxicity against human SGC7901 cells assessed as reduction in cell viability; settings: SGC-7901
SW1990 = test: Cytotoxicity against human SW1990 cells assessed as reduction in cell viability
MCF7 = test: Cytotoxicity against human MCF7 cells assessed as reduction in cell viability

Compound | IC50 (NCI-H460) | IC50 (HepG2) | IC50 (HeLa) | IC50 (U-251) | IC50 (DU-145) | IC50 (SW480) | IC50 [1] | IC50 (SW1990) | IC50 (MCF7)
CO[C@H]1CC(=O)[C@@H]2C[C@@]34SS[C@]5(C[C@@H]6C(=O)C=C[C@H](O)[C@H]6N5C3=O)C(=O)N4[C@@H]2[C@H]1O | 4.9 µM | 6.4 µM | 6.8 µM | 5.2 µM | 4.2 µM | 2 µM | 2.6 µM | 6 µM | 5.5 µM
COc1cccc2c1C(=O)c1c(O)c3c(c(O)c1C2=O)C[C@@](O)(C(=O)CO)C[C@@H]3O[C@H]1C[C@H](N)[C@H](O)[C@H](C)O1 [DOXORUBICIN] |  |  |  |  |  |  | 2.9 µM |  | 
O=C1C[C@H](O)[C@H](O)[C@@H]2[C@H]1C[C@@]13SS[C@]4(C[C@H]5[C@@H]([C@@H](O)C=C[C@@H]5O)N4C1=O)C(=O)N23 | > 20 µM | > 20 µM | > 20 µM | > 20 µM | > 20 µM | > 20 µM | > 20 µM | > 20 µM | > 20 µM
Nc1ccn([C@@H]2O[C@H](CO)[C@@H](O)C2(F)F)c(=O)n1 [GEMCITABINE] |  |  |  |  |  |  |  | 2.2 µM | 
CC(=O)O[C@H]1C(=O)[C@@]2(C)[C@H]([C@H](OC(=O)c3ccccc3)[C@]3(O)C[C@H](OC(=O)[C@H](O)[C@@H](NC(=O)c4ccccc4)c4ccccc4)C(C)=C1C3(C)C)[C@]1(OC(C)=O)CO[C@@H]1C[C@@H]2O [PACLITAXEL] |  |  | 5 µM |  | 1.5 µM |  |  |  | 1.8 µM
O=C1C=C[C@H](O)[C@@H]2[C@@H]1C[C@@]13SS[C@]4(C[C@H]5C(=O)CC[C@H](O)[C@H]5N4C1=O)C(=O)N23 | 4 µM | 5.5 µM | 5.3 µM | 3.5 µM | 3.6 µM | 1.2 µM | 2.4 µM | 6.4 µM | 6.1 µM

Now from value to molecule, other results behind:

IC50 (NCI-H460) | Compound | IC50 (HepG2) | IC50 (HeLa) | IC50 (U-251) | IC50 (DU-145) | IC50 (SW480) | IC50 [1] | IC50 (SW1990) | IC50 (MCF7)
0.89 µM | O=C1C=C[C@H](O)[C@@H]2[C@@H]1C[C@@]13SS[C@]4(C[C@H]5[C@@H]([C@@H](O)C=C[C@@H]5O)N4C1=O)C(=O)N23 | 2.9 µM | 6.9 µM | 5.3 µM | 1.7 µM |  | 8 µM | 5.9 µM | 3 µM
12.4 µM | O=C1N2[C@H]3[C@H](C[C@]24SS[C@]12C[C@H]1[C@@H]([C@@H](O)C=C[C@@H]1O)N2C4=O)[C@@H](O)C=C[C@@H]3O | 5.6 µM | 4.3 µM | 6.1 µM | 11.2 µM |  | 3.3 µM | 2.1 µM | 9 µM
> 20 µM | CO[C@H]1CC(=O)[C@@H]2C[C@@]34SS[C@]5(C[C@H]6C(=O)C[C@H](O)[C@H](O)[C@H]6N5C3=O)C(=O)N4[C@@H]2[C@H]1O | > 20 µM | > 20 µM | > 20 µM | > 20 µM | > 20 µM | > 20 µM | > 20 µM | > 20 µM
